# Data: US10729137B2, “Quaternary fungicidal mixture” (priority 2013, dated 2020)
# “Also recorded” adds a separate entry of the source.
# Legend:
# [1] = test system: creeping bentgrass (Agrostis stolonifera); test: Field study, Turf Quality (TQ) rating of treated plots; type: in vivo; settings: ordinal scale 1-9 (8 and higher ideal, under 6 unacceptable), same plots, rates and timing, 15 days after final application
# Protocol: (§1) A field study was conducted to identify which combinations would maintain or improve Turf Quality (TQ) and prevent or cure crown, basal or foliar pathogens such as dollar spot. Each solo treatment, 2-way (Pair), 3-way (Triad), and the present quaternary fungicidal mixture was applied bi-weekly beginning Jul. 1, 2013 prior to any evidence of decline in TQ or appearance of disease. Experimental plots were laid out in a Randomized Complete Block design.
# (§2) The dosage of each fungicidal active substance was held constant regardless of whether it appeared alone or in combination with other fungicides in order to quantify synergy according to the Colby formula. The quaternary mixture of the present subject matter was applied at the lowest rate specified herein, about 5.5 lb active substance per acre. Applications were made to replicate plots of creeping bentgrass (Agrostis stolonifera), each measuring 3 ft×5 ft. The turf was mowed as needed to maintain standard fairway height (blade length less than 0.5″). Four applications were made at 14 day re-treatment intervals, which is a conventional treatment schedule at the time of year when outbreaks of turfgrass disease occur reliably in the mid-Atlantic region (Greenville, Del.).
# The mix rate and volume of dilute spray applied to each plot was held constant. A CO2 backpack sprayer outfitted with TeeJet AI9504E flat fan nozzle delivered a water dilution of each treatment at the use rate of 43.5 gallons per acre (407 liters Ha^−1) and 35 psi (0.375 gallons per minute).
# Plots were evaluated and disease or cause of lesion identified 15 days after the final scheduled application, which was made on 12 August. At that time researchers rated each plot's TQ, the incidence of disease and its severity. Percent disease ratings were calculated on the basis of the percent of area of each plot showing symptoms of a disease, primarily dollar spot. Turf quality and color ratings are typically used as an indicator of the health of the turfgrass. Turf quality is scored on an ordinal scale from 1-9, where plots rated 8 and higher are considered ideal for color, uniformity and density, around 6.5 and above is considered acceptable, and ratings under 6 unacceptable for turfgrass disease and/or turf quality.
# Disease pressure evidenced by the untreated control ratings was considered severe. Six untreated control plots averaged 40% incidence, primarily due to a continuous increase in dollar spot pressure over time. By the end of the trial, TQ of the untreated plots declined to a low level, where leaf die-back, bleaching and lesions rated an average TQ of 4.2. Turf quality of plots treated with each active substance alone at these dosages was poor, averaging 3.9.
# [2] = test system: dollar spot, Sclerotinia homeocarpa; test: Field study of disease control on creeping bentgrass plots (percent inhibition, Colby synergy); type: in vivo; settings: four applications at 14 day intervals, rated 15 days after final application, chlorothalonil 3.1, iprodione 1.03, thiophanate methyl 1.03, tebuconazole 0.31 LBai/A where included
# Text: In the context of the present subject matter, the term “synergy” is as defined by S. R. Colby in an article entitled “Calculation of the synergistic and antagonistic responses of herbicide combinations” published in the journal Weeds, 1967, 15, p. 20-22, incorporated herein by reference in its entirety. The action expected for a given combination of four active components can be calculated as follows:
# [formula] in which E represents the expected percentage of fungicidal control (percent inhibition) for the multiple mixture of fungicides at defined doses (for example equal to x, y, z and w, respectively). X is the percentage of fungicide control observed by chlorothalonil at a defined dose (equal to x). Y is the percentage of fungicide control observed by iprodione at a defined dose (equal to y). Z is the percentage of fungicide control observed by thiophanate methyl at a defined dose (equal to z). W is the percentage of fungicide control observed by tebuconazole at a defined dose (equal to w). Here, efficacy or percent inhibition is determined in %. 0% means efficacy that corresponds to the Control, i.e., as if no treatment had been applied. Whereas, a percent inhibition of 100% means that no infection is observed. When the percent inhibition observed for the combination is greater than E, there is a synergistic effect. When the percent inhibition observed for the combination is equal to E, there is an additive effect and wherein the percent inhibition observed for the combination is lower than E, there is an antagonistic effect.
# In the Colby model, one can transform its use of “percent inhibition” (or control) to “percent-of-untreated Control” to solve for E1 rather than E and simplify the equation:
# [formula] where E1=100−E (conversely, solving for E, 100−E1=E), X1=100−X, Y1=100−Y, Z1=100−Z, and W1=100−W. Although many combinations of fungicides have been studied and evaluated by means of the Colby Index, it is quite clear by modeling such synthetic expressions of synergy that the addition of a third, or even fourth, active ingredient to the premix may encounter the Point of Diminishing Returns caused by correction factors for 3- and 4-way interactions that offset the increase in E (or decrease in E1). In marked contrast, the present subject matter has shown an expansive effect and performance boost so great that differences between the observed and expected values computed according to Colby can best be used as a descriptive statistic confirming the quarternary fungicidal mixture's obvious effect.
# as §1, §2
# The mix rate and volume of dilute spray applied to each plot was held constant. […]
Structure (SMILES),Turf Quality [1],Turf Quality ([1]; listed as iprodione),Percent Inhibition [2],Percent Inhibition ([2]; listed as iprodione),Turf Quality ([1]; listed as thiophanate methyl),Percent Inhibition ([2]; listed as thiophanate methyl)
CC(C)NC(=O)N1CC(=O)N(c2cc(Cl)cc(Cl)c2)C1=O [Iprodione],4.0,no better than the untreated control,5.8%,no better than the untreated control,–,–
CC(C)(C)C(O)(CCc1ccc(Cl)cc1)Cn1cncn1 (stereo not drawn) [Tebuconazole],4.0,–,19.3%,–,–,–
N#Cc1c(Cl)c(Cl)c(Cl)c(C#N)c1Cl [Chlorothalonil],4.3,–,15.8%,–,–,–
"COC(=O)NC(=S)Nc1ccccc1NC(=S)NC(=O)OC [Thio methyl, Thiophanate methyl]",3.3,–,0%,–,no better than the untreated control; also recorded: significantly lower ratings than those of the untreated Control,no better than the untreated control
